The values that follow come from patent EP1234878A1, “USE OF DISEASE-ASSOCIATED GENE” (Takeda Chemical Industries, Ltd., priority 1999, dated 2001).

The structures appear in SMILES notation.

In this assay the test system is human CLCA1 protein, SEQ ID NO: 2 (human CLCA1 expressing CHO cells). The assay can be described thus: Cl- ion secretion assay using human CLCA1-expressing CHO cells (MEQ fluorescence, ionomycin stimulation). The class given is cell-based. Conditions: anionic transport inhibitor added at 200 µM or 10 µM (FIG. 11), room temperature for 30 minutes, then ionomycin 10 µM; Cl- ion fluorescence indicator MEQ. The protocol: Human CLCA1-expressing plasmid pcDNA-hCLCA1 shown in EXAMPLE 6 was transfected to CHO cells using Gene transfer lyo (manufactured by Wako Pure Chemical Industries, Ltd.) in accordance with the attached manual. The cells were subjected to selective culture for 10 days in MEM-α medium (manufactured by GIBCO BRL) supplemented with 1 mg/ml of neomycin (G418) (manufactured by GIBCO BRL) to obtain the cells grown as human CLCA1 expressing CHO cells. The human CLCA1 expressing CHO cells and parent CHO cells were seeded on a 96-well plate (manufactured by Packard Inc.) coated with 2 µg/ml of fibronectin (manufactured by Itoham Foods, Inc.), respectively, in a concentration of 4 x 10^4 cells/well, followed by culturing at 37°C for 24 hours under 5% CO2. After completion, the culture solution was washed once with a buffer solution containing no Cl^- ions (2.4 mM K2HPO4, 0.6 mM KH2PO4, 10 mM D-glucose, 1 mM MgSO4, 1 mM CaSO4, 135 mM NaNO3, 10 mM HEPES, pH 7.4), and 1 mM of Cl^- ion fluorescence indicator 6-methoxy-N-ethylquinolinium iodide (MEQ, manufactured by Moelcular Probes, Inc.) was added in an amount of 100 µl/well to the culture solution, followed by incubation at 37°C for further 2 hours. The culture solution was further washed twice with a Cl^- ion-containing buffer solution (2.4 mM K2HPO4, 0.6 mM KH2PO4, 10 mM D-glucose, 1 mM MgSO4, 1 mM CaSO4, 135 mM NaCl, 10 mM HEPES, pH 7.4), and then allowed to stand at room temperature for 30 minutes. Each well was replaced by the buffer solution containing no Cl^- ions and ionomycin was added to make the concentration of 10 µM. Immediately thereafter, the fluorescence intensity was measured at an excited wavelength of 355 nm and a measurement wavelength of 460 nm, usingamulti-label counter Wallac1420ARVOsx (manufactured by Amersham Pharmacia Biotech).
When stimulated with 10 µM ionomycin (manufactured by Wako Pure Chemical Industries, Inc.), the fluorescence intensity increased in human CLCA1 expressing CHO cells by about twice, as compared to the parent CHO cells (FIG. 10). […]
`O[C@H](CS)[C@H](O)CS` (racemic) [dithiothreitol]: the “increase of the fluorescence intensity by ionomycin stimulation of human CLCA1 expressing CHO cells” value (from here on “increase of the fluorescence intensity”) is on record as “suppressed”.

`O=S(=O)(O)c1cc(N=C=S)ccc1C=Cc1ccc(N=C=S)cc1S(=O)(=O)O` [4,4'-diisothiocyanastilbene-2,2'-disulfonic acid]: the “increase of the fluorescence intensity” value was “suppressed”.

Take `O=C(O)c1cccnc1Nc1cccc(C(F)(F)F)c1` [niflumic acid]: the “increase of the fluorescence intensity” value is listed as “suppressed”.
